From patent US11415513B2, “Method for determining the degree of sensitivity of a strain of fungus to an antifungal agent” (UNIVERSITE GRENOBLE ALPES, priority 2015, dated 2022)
In brackets after ≈: the same amount, converted by molar mass.

What was measured:
[1] = system: strain Tg5 of C. glabrata; assay: Sensitivity test by HCA microscopy (chitin level, Calcofluor White); type: cell-based, Candida glabrata; conditions: 6.5 h at 35° C., RPMI medium; for decrease in the chitin level in the wall of the cells: vs cells in the absence of antifungal agent, concentration gradient of Table 1
Method: (§1) The strains of Candida were incubated beforehand at 30° C. overnight in a yeast extract medium—peptone dextrose (YPD) (1% bacto peptone, 0.5% yeast extract, 2% glucose, 1.5% agar).
Yeast colonies were then removed from YPD medium plates and suspended in a 0.9% NaCl saline solution, in which the cell concentration was estimated by optical microscopy using Kova counting slides.
A dilution was performed to obtain 15 ml of an inoculum at 3×10^6 CFU/ml, in a synthetic complete (SC) medium at pH 7 (2% glucose, 0.5% ammonium sulfate, 0.17% nitrogen-containing yeast base, 0.2% synthetic complete mixture, and 10% HEPES 1.5M pH 7.2) for C. albicans, C. parapsilosis, C. tropicalis and C. krusei, and in a solution of RPMI 1640 pH 7.3 (10% HEPES 1M pH 7.2) for C. glabrata, so as to reduce the formation of septa and clusters.
1 ml of inoculum was then added to 2 ml of antifungal solution prepared in an SC or RPMI medium depending on the species of fungus, so as to obtain a final concentration of yeast of 10^6 CFU/ml and the desired concentration of antifungal agent according to table 1.
After homogenisation, the cultures were placed at 30° C. at 200 rpm, with the exception of cultures of C. glabrata, which were placed at 35° C. at 200 rpm, and incubated for a period of 6.5 h or 24 h.
After incubation, 100 μl of the culture of fungi obtained above were transferred in triplicate to 96-well plates, and 2.5 μl of Calcofluor White (CFW) were added to each well so as to mark the chitin of the cell walls of the yeasts.
(§2) A step of acquiring images by automated fluorescence microscopy (ScanR screening station, Olympus), using a 40× lens and a CFW filter, made it possible to obtain 30 images per well so as to capture enough cells to provide statistically significant data. These images were analysed by software (ScanR analysis software, Olympus). Firstly, the background noise was processed so as to improve the contrast between the fluorescence of the yeasts and background noise. A pixel threshold was then defined. Segmentation of the fluorescent elements present in each of the acquired images was then performed using an algorithm predefined in the software, making it possible to determine the limit of each element on the basis of the fluorescence intensity of said element. […]
(§3) Each element then corresponding to a yeast, it was thus possible, on the basis of these elements predefined beforehand, to define the fluorescence intensity for each of the yeasts, this intensity being directly correlated with the chitin content of their wall. […]
The chitin level in the cell wall of the yeasts was then measured by […] analysis (HCA) microscopy, as described in paragraph II of the Examples section, in triplicate for each condition of concentration of fluconazole and without fluconazole. […]

[2] = system: strain 8/21 of C. parapsilosis; assay: as above; type: cell-based, Candida parapsilosis; conditions: vs cells in the absence of antifungal agent; 6.5 h at 30° C., SC medium; concentration gradient of Table 1
Method: as §1
Yeast colonies were then removed from YPD medium plates and suspended in a 0.9% NaCl saline solution, in which the cell concentration was estimated by optical microscopy using Kova counting slides. […]
as §2, with “A pixel threshold was then defined.” left out
as §3

[3] = system: strain ATCC®6258 of C. krusei; assay: Etest method (MIC); type: cell-based, Candida krusei; conditions: RPMI medium plates, 24 h at 35° C.; for MIC: Pichia kudriavzevii, ATCC6258; for phenotype by Etest MIC, interpretation by the EUCAST or CLSI table: fluconazole interpreted by extrapolation of the EUCAST and CLSI data for C. glabrata
Method: The Etest® method is a commercial test for determining the sensitivity of a strain, most frequently used routinely in clinical mycology laboratories.
The Etest® tests were performed according to the manufacturer's instructions. After distributing a standardised Mac Farland 0.5 inoculum (equivalent of […]) over plates of RPMI medium, said plates were incubated for 24 h at 35° C., with the exception of C. glabrata in which case the incubation was extended to 48 h so as to be able to determine the minimum inhibitory concentration (MIC).
The results of the MICs obtained were interpreted in accordance with the tables of the CLSI (Clinical and Laboratory Standards Institute) and/or of EUCAST (European Committee on Antimicrobial Susceptibility Testing) (Arendrup M C, Cuenca-Estrella M, Lass-Flörl C, Hope W W (2014) Breakpoints for antifungal agents: an update from EUCAST focussing on echinocandins against Candida spp and triazoles against Aspergillus spp. Drug Resist Updat 16(6):81-95. doi:10.1016/j.drup.2014.01.001) (cf. Table 2 taken from Maubon D, Garnaud C, Calandra T, et al. (2014) Resistance of Candida spp. to antifungal drugs in the ICU: where are we now? Intensive Care Med. doi: 10.1007/s00134-014-3404-7) which list the clinical thresholds (CBPs) for the most common species of yeast of the genus Candida as a function of different antifungal agents, or according to the table of epidemiological thresholds (ECVs).

Compound: OC(Cn1cncn1)(Cn1cncn1)c1ccc(F)cc1F [fluconazole]
- phenotype of the strain with respect to the antifungal agent (HCA) [1]: resistant (an increase in the chitin level having a value less than 10% or a decrease in the chitin level of less than 20% or an unchanged chitin level)
- decrease in the chitin level in the wall of the cells [1]: less than 20%
- increase in the chitin level in the wall of the cells [2]: less than 10%
- MIC [3]: 64 µg/mL (≈ 209 µM)
- phenotype by Etest MIC, interpretation by the EUCAST or CLSI table [3]: resistant

Compound: C[C@@H](c1ncncc1F)[C@](O)(Cn1cncn1)c1ccc(F)cc1F [voriconazole]
- phenotype of the strain with respect to the antifungal agent (HCA) [1]: resistant (an increase in the chitin level having a value less than 10% or a decrease in the chitin level of less than 20% or an unchanged chitin level)
- decrease in the chitin level in the wall of the cells [1]: less than 20%
- increase in the chitin level in the wall of the cells [2]: less than 10%
- MIC [3]: 1 µg/mL (≈ 2.86 µM)
- phenotype by Etest MIC, interpretation by the EUCAST or CLSI table [3]: intermediate
